# Experimental data taken from ChEMBL document CHEMBL4414604, “Anti-inflammatory Chalcone-Isoflavone Dimers and Chalcone Dimers from Caragana jubata” (J Nat Prod, 2019).
# Assays:
# [1] = test system: RAW264.7; test: Cytotoxicity against mouse RAW264.7 cells assessed as reduction in cell viability at 50 uM by MTT assay; type: cell-based; settings: raw264.7, 50 µM
# [2] = test system: RAW264.7; test: Antiinflammatory activity against mouse RAW264.7 cells assessed as inhibition of LPS-induced NO production incubated for 24 hrs by Griess reagent-based assay; type: functional, cell-based; settings: RAW264.7, 24 h
# [3] = test system: RAW264.7; test: Antiinflammatory activity against mouse RAW264.7 cells assessed as inhibition of LPS-induced IL-6 secretion after 24 hrs by ELISA; type: functional, cell-based; settings: RAW264.7, 24 h
# [4] = test system: RAW264.7; test: Antiinflammatory activity against mouse RAW264.7 cells assessed as inhibition of LPS-induced TNF-alpha secretion after 24 hrs by ELISA; type: functional, cell-based; settings: RAW264.7, 24 h
smiles,measurement,setting,value
COc1ccc([C@H](/C=C/c2ccc(O)cc2)c2cc(-c3coc4cc(OC)cc(O)c4c3=O)c(O)cc2O)c(OC)c1,Activity,[1],Non-Toxic
same,IC50,[2],25.7 µM
same,IC50,[3],> 50 µM
same,IC50,[4],11.4 µM
C[C@@H]1C[C@H]2[C@@H]3CCC4=CC(=O)C=C[C@]4(C)[C@@]3(F)[C@@H](O)C[C@]2(C)[C@@]1(O)C(=O)CO [DEXAMETHASONE],IC50,[2],6 µM
same,IC50,[3],8.4 µM
same,IC50,[4],6.1 µM
C[C@H]1[C@H](C)CC[C@]2(C=O)CC[C@]3(C)C(=CC[C@@H]4[C@@]5(C)CC[C@H](O)C(C)(C)[C@@H]5CC[C@]43C)[C@H]12 [OLEANOALDEHYDE],Activity,[1],Non-Toxic
same,IC50,[2],18.6 µM
COc1ccc(/C=C/[C@H](c2ccc(O)cc2)c2cc(-c3coc4cc(OC)cc(O)c4c3=O)c(O)cc2O)c(OC)c1,Activity,[1],Non-Toxic
same,IC50,[2],4.1 µM
same,IC50,[3],32.6 µM
same,IC50,[4],20.5 µM
COc1ccc2c(c1)O[C@@]1(/C=C/c3ccc(O)cc3)c3ccc(OC)cc3O[C@H]2[C@H]1Cc1ccc(O)cc1,Activity,[1],Non-Toxic
same,IC50,[2],5.2 µM
same,IC50,[3],26.8 µM
same,IC50,[4],14.7 µM
COc1ccc2c(c1)O[C@@H](c1ccc(OC)cc1OC)[C@H](Cc1ccc(O)cc1)[C@H]2/C=C/c1ccc(O)cc1,Activity,[1],Non-Toxic
same,IC50,[2],25.6 µM
same,IC50,[3],31.4 µM
same,IC50,[4],26.7 µM
